pIC50, pKi: −log10 of the molar value. One block for each compound: values may come before it.
Key:
imidazoline receptor I2 = assay: radioligand binding to imidazoline receptor I2 ([3H] Idazoxan); parameters: species or system rat; settings: 10 μM ligand
Protocol: Determination of investigated compounds' binding to imidazoline I2 receptor is carried out according to the method described in [Brown C M, MacKinnon A C, McGrath J C, Spedding M and Kilpatrick A T, a2-Adrenoceptor subtypes and imidazoline-like binding in the rat brain. Br J. Pharmacol. 99:803-809, 1990]. […] Idazoxan is used as positive control.

recombinant human 5-HT1A = biological target: T1, recombinant human 5-HT1A (Homo sapiens, UniProt P08908); assay: radioligand binding to serotonin receptor 5-HT1A ([3H] 8-OH-DPAT); settings: for 5-HT1A % inhibition: 10 μM ligand; for inhibition at 1 µM: ligand concentration 1 μM
T1 construct: expressed in transfected cells; host or cells: CHO
T1 sequence (P08908 1-422): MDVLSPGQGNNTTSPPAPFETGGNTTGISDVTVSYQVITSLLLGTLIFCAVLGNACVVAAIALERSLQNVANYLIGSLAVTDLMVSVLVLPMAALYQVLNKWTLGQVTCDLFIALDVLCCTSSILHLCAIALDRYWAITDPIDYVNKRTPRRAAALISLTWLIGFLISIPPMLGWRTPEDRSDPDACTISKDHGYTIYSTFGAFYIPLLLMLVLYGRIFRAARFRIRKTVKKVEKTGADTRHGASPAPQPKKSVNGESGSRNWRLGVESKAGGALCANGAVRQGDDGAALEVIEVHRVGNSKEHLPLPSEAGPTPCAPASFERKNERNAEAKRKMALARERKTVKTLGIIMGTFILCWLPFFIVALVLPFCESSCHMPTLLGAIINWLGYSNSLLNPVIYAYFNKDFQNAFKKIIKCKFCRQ
Excerpt: J Pharmacol Exp Ther. 306(1): 301-309, 2003]. […] Metergoline is used as positive control.

[1] = biological target: T2, recombinant human 5-HT2B receptor (Homo sapiens, UniProt P41595); assay: radioligand binding to serotonin receptor 5-HT2B ([3H] Lysergic acid diethylamide); settings: for 5-HT2B % inhibition: 10 μM ligand
T2 construct: expressed in transfected cells; host or cells: CHO-K1

adrenergic receptor α1A = biological target: T3, adrenergic receptor α1A (Rattus norvegicus, UniProt P43140); assay: radioligand binding to adrenergic receptor α1A ([3H] Prazosin)
T3 construct: membrane species from rat submaxillary glands (rat of Wistar breed) are prepared; from tissue; host or cells: rat (Wistar) submaxillary gland membranes
T3 sequence (P43140 1-466): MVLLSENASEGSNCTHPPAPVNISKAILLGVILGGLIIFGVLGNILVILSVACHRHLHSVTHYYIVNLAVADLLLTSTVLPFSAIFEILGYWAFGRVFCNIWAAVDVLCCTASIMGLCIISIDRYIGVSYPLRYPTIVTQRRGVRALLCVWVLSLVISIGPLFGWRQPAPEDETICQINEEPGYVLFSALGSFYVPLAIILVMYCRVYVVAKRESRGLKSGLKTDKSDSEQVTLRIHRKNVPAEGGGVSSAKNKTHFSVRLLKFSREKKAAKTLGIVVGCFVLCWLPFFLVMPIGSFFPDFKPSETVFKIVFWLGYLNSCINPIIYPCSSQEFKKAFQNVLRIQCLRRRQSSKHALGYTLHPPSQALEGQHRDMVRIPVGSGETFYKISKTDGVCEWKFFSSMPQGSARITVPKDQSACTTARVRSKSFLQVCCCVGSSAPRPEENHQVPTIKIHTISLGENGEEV
Protocol: Determination of investigated compounds' binding to α1A receptor was carried out according to the method described in [Michel A D, Loury D N and Whiting R l. Identification of a single α1A-adrenoceptor corresponding to the α1A-subtype in rat submaxillary gland. Br J. Pharmacol. 98:883-889, 1989]. […] Prazosin is used as positive control.

adrenergic receptor α1B = biological target: T4, adrenergic receptor α1B (Rattus norvegicus, UniProt P15823); assay: radioligand binding to adrenergic receptor α1B ([3H] Prazosin)
T4 construct: membrane species from rat liver (rat of Wistar breed) are prepared; from tissue; host or cells: rat (Wistar) liver membranes
T4 sequence (P15823 1-515): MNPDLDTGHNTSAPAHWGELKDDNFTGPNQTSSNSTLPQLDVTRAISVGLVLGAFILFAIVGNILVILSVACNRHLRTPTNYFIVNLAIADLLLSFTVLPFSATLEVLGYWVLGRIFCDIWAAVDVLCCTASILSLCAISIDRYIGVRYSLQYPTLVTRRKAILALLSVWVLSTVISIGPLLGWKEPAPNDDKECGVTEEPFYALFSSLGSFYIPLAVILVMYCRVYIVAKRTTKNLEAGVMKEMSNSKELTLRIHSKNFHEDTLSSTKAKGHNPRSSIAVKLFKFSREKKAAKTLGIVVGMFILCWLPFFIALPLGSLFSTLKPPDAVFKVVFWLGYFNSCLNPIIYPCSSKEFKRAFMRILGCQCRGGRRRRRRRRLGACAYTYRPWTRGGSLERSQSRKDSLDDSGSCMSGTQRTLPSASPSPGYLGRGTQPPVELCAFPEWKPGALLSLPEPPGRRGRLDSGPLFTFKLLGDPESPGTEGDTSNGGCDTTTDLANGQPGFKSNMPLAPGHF
Excerpt: Species heterogeneity of hepatic α1A-, α1B-, and α1C-subtypes. Biochem Biophys Res Commun. 186:760-7676 1992]. […] Prazosin is used as positive control.

human α1D receptor = biological target: T5, human α1D receptor (Homo sapiens, UniProt P25100); assay: radioligand binding to adrenergic receptor α1D ([3H] Prazosin)
T5 construct: expressed in transfected cells; host or cells: HEK-293
T5 sequence (P25100 1-572): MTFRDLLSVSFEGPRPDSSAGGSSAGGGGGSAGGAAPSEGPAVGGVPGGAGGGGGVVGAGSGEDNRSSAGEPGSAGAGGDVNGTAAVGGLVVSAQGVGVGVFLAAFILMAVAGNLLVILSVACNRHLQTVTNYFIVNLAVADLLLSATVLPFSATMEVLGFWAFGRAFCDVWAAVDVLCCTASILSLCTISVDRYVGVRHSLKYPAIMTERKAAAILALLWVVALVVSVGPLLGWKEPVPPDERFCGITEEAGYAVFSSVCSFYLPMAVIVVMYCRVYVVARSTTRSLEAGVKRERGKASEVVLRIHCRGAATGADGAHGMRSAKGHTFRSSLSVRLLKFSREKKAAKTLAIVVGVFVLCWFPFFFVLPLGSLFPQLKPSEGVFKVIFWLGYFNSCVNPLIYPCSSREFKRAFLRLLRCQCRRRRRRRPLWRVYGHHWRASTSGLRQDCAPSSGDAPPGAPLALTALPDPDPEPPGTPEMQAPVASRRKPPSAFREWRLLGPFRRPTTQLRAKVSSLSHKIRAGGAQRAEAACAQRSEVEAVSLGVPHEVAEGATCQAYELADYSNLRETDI
Excerpt: 6-C. […] For this purpose sDNA of human α1D receptor is expressed in HEK-293 cells, as it was described in [T L Theroux, T A Esbenshade, R D Peavy and K P Minneman. Coupling efficiencies of human alpha 1-adrenergic receptor subtypes: titration of receptor density and responsiveness with inducible and repressible expression vectors. Mol. Pharmacol.; 50: 1376-1387, 1996]. […] Prazosin is used as positive control.

human α2A receptor = biological target: T6, human α2A receptor (Homo sapiens, UniProt P08913); assay: radioligand binding to adrenergic receptor α2A ([3H] MK-912)
T6 construct: expressed in transfected cells; host or cells: Sf9
T6 sequence (P08913 1-465): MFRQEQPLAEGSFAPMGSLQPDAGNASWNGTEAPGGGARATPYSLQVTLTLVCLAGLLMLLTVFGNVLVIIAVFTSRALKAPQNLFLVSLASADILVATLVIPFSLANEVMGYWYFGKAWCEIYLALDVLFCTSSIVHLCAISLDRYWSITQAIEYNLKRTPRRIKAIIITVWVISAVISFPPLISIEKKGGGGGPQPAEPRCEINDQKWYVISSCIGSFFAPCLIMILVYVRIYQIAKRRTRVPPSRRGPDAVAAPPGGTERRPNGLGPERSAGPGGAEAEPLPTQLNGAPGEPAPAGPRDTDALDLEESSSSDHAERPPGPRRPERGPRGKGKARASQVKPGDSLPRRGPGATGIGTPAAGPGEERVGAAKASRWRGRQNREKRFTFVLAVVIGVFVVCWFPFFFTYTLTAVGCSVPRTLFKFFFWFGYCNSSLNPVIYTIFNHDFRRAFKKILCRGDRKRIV
Excerpt: J Pharmacol ExpTher. […] Yohimbine is used as positive control.

human 5-HT7 receptor = biological target: T7, human 5-HT7 receptor (Homo sapiens, UniProt P34969); assay: radioligand binding to serotonin receptor 5-HT7 ([3H] Lysergic acid diethylamide); settings: 10 μM ligand
T7 construct: expressed in transfected cells; host or cells: CHO
Excerpt: For this purpose sDNA of human 5-HT7 receptor is expressed in CHO cells as it was described in [Shen Y, Monsma F J Jr, Metcalf M A, Jose P A, Hamblin M W, and Sibley DR. […] J. Biol. Chem. 1993, 268, 18200-18204]. […] J. Pharmacol. Exp. Ther. 1994, 268:1403-1410]. […] Methiothepin is used as positive control.

[2] = biological target: T8, recombinant human 5-HT6 receptor (Homo sapiens, UniProt P50406); assay: radioligand binding to serotonin receptor 5-HT6 ([3H] Lysergic acid diethylamide); settings: for 5-HT6 % inhibition: 10 μM ligand
T8 construct: expressed in transfected cells; host or cells: HeLa
Excerpt: Mol. Pharmacol. 43:320-327, 1993]. […] Methiothepin is used as positive control.

[3] = biological target: T9, recombinant human 5-HT2C receptor (Homo sapiens, UniProt P28335); assay: radioligand binding to serotonin receptor 5-HT2C ([3H] Mesulergine)
T9 construct: expressed in transfected cells; host or cells: CHO-K1
T9 sequence (P28335 33-458): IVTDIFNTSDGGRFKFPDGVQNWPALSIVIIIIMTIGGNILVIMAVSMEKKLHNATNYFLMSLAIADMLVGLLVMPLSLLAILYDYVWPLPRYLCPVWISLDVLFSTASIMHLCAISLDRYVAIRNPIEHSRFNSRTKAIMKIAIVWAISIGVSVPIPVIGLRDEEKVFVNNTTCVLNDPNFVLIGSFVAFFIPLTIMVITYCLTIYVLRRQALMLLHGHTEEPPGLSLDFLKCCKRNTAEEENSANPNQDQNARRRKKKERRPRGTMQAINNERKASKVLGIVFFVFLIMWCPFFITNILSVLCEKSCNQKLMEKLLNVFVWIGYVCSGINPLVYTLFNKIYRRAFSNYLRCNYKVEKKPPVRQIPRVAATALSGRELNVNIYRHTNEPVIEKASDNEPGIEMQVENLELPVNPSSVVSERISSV
Excerpt: J. Neurochem. 69: 1449-1458, 1997]. […] SB242084 is used as positive control.

T7 sequence (P34969 whole entry): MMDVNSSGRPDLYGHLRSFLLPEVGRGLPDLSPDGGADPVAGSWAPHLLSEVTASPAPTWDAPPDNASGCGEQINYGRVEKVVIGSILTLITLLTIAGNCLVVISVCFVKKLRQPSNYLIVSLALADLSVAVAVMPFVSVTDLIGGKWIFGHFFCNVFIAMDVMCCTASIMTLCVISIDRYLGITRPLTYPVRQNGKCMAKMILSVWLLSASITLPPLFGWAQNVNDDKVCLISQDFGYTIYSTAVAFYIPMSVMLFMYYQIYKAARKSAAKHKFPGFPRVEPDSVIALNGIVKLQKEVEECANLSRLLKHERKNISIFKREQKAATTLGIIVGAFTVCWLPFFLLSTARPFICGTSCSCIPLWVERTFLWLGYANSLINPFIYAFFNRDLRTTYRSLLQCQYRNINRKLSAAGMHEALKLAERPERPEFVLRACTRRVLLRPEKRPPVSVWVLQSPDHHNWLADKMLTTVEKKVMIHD
T2 sequence (P41595 whole entry): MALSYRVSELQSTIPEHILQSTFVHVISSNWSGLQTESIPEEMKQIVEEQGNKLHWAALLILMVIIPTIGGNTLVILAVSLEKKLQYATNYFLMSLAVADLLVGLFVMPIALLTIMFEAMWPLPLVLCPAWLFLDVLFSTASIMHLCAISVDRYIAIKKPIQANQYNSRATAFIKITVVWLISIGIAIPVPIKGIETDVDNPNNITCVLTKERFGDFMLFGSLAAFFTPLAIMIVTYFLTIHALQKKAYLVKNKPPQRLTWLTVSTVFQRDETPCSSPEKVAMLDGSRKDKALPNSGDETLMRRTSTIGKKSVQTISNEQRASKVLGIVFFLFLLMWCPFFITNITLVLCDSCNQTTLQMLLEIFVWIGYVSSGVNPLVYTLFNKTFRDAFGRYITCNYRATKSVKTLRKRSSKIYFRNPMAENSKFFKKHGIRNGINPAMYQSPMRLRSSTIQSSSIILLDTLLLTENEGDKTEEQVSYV
T8 sequence (P50406 whole entry): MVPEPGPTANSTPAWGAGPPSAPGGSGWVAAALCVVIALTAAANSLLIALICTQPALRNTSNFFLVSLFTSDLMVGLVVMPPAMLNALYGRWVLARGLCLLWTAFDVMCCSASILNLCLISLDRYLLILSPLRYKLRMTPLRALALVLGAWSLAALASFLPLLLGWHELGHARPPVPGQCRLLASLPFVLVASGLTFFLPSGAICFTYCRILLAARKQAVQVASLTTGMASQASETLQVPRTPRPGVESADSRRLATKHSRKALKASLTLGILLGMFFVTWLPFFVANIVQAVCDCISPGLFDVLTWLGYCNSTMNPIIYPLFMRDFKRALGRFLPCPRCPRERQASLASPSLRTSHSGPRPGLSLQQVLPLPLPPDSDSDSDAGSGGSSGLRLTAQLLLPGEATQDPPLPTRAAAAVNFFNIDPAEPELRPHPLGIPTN

Compound: Cc1ccc2c(c1)[C@@H]1CN(C)CCC[C@@H]1N2CCc1cccnc1.Cl.Cl.Cl (relative stereo) [1.6.1(1)•3HCl]
- imidazoline I2 receptor % inhibition (imidazoline receptor I2): 80%

Compound: Cc1ccc2c(c1)c1c(n2CCc2ccccc2)CCN(C)C1.Cl [1.1.2(1-2)•HCl, 2,8-dimethyl-5-phenethyl-1,2,3,4-tetrahydro-1H-pyrido[4,3-b]indole hydrochloride]
- 5-HT1A % inhibition (recombinant human 5-HT1A): 84%
- pIC50 [1]: 7.78
- pKi [1]: 7.97
- nH 5-HT2B [1]: 0.868
- 5-HT2B % inhibition [1]: 100%
- imidazoline I2 receptor % inhibition (imidazoline receptor I2): 93%

- pIC50 (adrenergic receptor α1A): 7.33
- pKi (adrenergic receptor α1A): 7.72
- pIC50 (adrenergic receptor α1B): 7.77
- pKi (adrenergic receptor α1B): 8.03
- pIC50 (human α1D receptor): 7.21
- pKi (human α1D receptor): 7.52
- pIC50 (human α2A receptor): 8.33
- pKi (human α2A receptor): 8.75
Compound: Cc1ccc(CCn2c3c(c4cc(C)ccc42)CN(C)CC3)cc1 [1.1.2(1-3), 2,8-dimethyl-5-[2-(4-methylphenyl)-ethyl]-1,2,3,4-tetrahydro-1H-pyrido[4,3-b]indole]

- 5-HT7 % inhibition (human 5-HT7 receptor): 94%
Compound: CN1CCc2c(c3cc(C(F)(F)F)ccc3n2CCc2ccccc2)C1.Cl [1.1.2(1-7)•HCl, 2-methyl-8-trifluoromethyl-5-phenethyl-1,2,3,4-tetrahydro-1H-pyrido[4,3-b]indole]

- 5-HT1A % inhibition (recombinant human 5-HT1A): 57%
- 5-HT6 % inhibition [2]: 108%
- 5-HT7 % inhibition (human 5-HT7 receptor): 100%
Compound: COc1ccc(CCn2c3c(c4cc(C)ccc42)CN(C)CC3)cc1.Cl [1.1.2(1-14)•HCl]

- 5-HT1A % inhibition (recombinant human 5-HT1A): 37%
- 5-HT6 % inhibition [2]: 103%
- 5-HT7 % inhibition (human 5-HT7 receptor): 95%
Compound: Cc1ccc2c(c1)c1c(n2CCc2ccc(F)cc2)CCN(C)C1.Cl [1.1.2(1-16)•HCl]

Compound: Cc1ccc2c(c1)c1c(n2CCc2ccc(C(F)(F)F)cc2)CCN(C)C1.Cl [1.1.2(1-18)•HCl]
- 5-HT1A % inhibition (recombinant human 5-HT1A): 53%
- 5-HT7 % inhibition (human 5-HT7 receptor): 103%

Compound: Cc1ccc2c(c1)c1c(n2CCc2ccccn2)CCCN(C)C1 [1.2.2(2-2)]
- inhibition at 1 µM (recombinant human 5-HT1A): 28%
- 5-HT2B % inhibition [1]: 10%
- 5-HT2C % inhibition ([3]; 10 μM ligand): 51%
- inhibition at 1 µM ([3]; ligand concentration 1 μM): 94%
- inhibition at 1 µM ([2]; ligand concentration 1 μM, read-out: 5-HT6 % inhibition): 88%
- imidazoline I2 receptor % inhibition (imidazoline receptor I2): 80%

Compound: Cc1ccc2c(c1)c1c(n2CCc2cccnc2)CCCN(C)C1.Cl.Cl [1.2.2(3-2)•2HCl]
- α-Adrenoceptor α1A, % inhibition (adrenergic receptor α1A; 10 μM ligand): 61%
- α-Adrenoceptor α1B, % inhibition (adrenergic receptor α1B; 10 μM ligand): 75%
- α-Adrenoceptor α1D, % inhibition (human α1D receptor; 10 μM ligand): 60%
- α-Adrenoceptor α2A, % inhibition (human α2A receptor; 10 μM ligand): 71%
- inhibition at 1 µM (recombinant human 5-HT1A): 6%
- imidazoline I2 receptor % inhibition (imidazoline receptor I2): 63%

- imidazoline I2 receptor % inhibition (imidazoline receptor I2): 80%
Compound: Cc1ccc2c(c1)c1c(n2CCc2ccc(C)nc2)CCCN(C)C1 [1.2.2(4-1)]

Compound: CN1CCc2c(c3cc(F)ccc3n2CCCc2ccccc2)C1.Cl [1.3.3(8)•HCl]
- 5-HT1A % inhibition (recombinant human 5-HT1A): −4%
- 5-HT7 % inhibition (human 5-HT7 receptor): 83%

Compound: CN1CCc2c(c3cc(F)ccc3n2Cc2ccccc2)C1.Cl [1.9(3)•HCl]
- 5-HT7 % inhibition (human 5-HT7 receptor): 81%

Compound: Cc1ccc2c(c1)c1c(n2Cc2ccccc2)CCCN(C)C1.Cl [1.10(4)•HCl]
- 5-HT1A % inhibition (recombinant human 5-HT1A): 19%
- 5-HT7 % inhibition (human 5-HT7 receptor): 75%
